IC50 data for 28 compounds are collected here from patent US11661426B2, “Imidazole-containing inhibitors of ALK2 kinase” (BioCryst Pharmaceuticals, Inc., priority 2017, dated 2023).

Each structure is given as a SMILES string.

In this experiment the target is ALK2 (Homo sapiens (Human), UniProt Q04771). Briefly: ALK2 inhibition, LanthaScreen Eu Kinase Binding Assay (ThermoFisher Scientific / Life Technologies). Conditions: read-out: Measured Ki (IC50) Value for Compounds: IC50. How it is done:
Biochemical assays to measure the inhibitory effects of the compounds were performed by ThermoFisher Scientific (Life Technologies). ALK2 inhibition was tested using LanthaScreen™ Eu Kinase Binding Assay screening protocol.
A general note: TR-FRET usually uses a lanthanide donor and a delayed reading to cut background.

ALK2, sequence (Q04771 21-509): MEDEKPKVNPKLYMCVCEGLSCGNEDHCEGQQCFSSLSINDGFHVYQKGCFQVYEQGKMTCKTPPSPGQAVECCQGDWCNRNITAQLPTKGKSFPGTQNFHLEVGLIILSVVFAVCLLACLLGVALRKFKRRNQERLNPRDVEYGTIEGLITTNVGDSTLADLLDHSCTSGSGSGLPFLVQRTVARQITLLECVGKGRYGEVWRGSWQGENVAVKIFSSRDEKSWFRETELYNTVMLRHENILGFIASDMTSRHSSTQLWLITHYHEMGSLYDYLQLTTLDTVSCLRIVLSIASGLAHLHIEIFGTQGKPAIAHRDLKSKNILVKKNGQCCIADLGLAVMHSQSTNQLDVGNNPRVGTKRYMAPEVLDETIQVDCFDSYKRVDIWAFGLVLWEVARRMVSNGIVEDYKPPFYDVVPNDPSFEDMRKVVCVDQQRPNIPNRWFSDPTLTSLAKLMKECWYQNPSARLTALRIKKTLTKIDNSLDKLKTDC

What is called IC50 is the concentration needed to halve the response being measured. `COc1cc(-n2cnc(Nc3nc(N4CCC[C@H]4C(N)=O)nc4c3c(C)nn4C3CCCCO3)c2)cc(OC)c1OC` (stereo partly drawn) [Compound 401a, (2S)-1-(3-methyl-1-(tetrahydro-2H-pyran-2-yl)-4-((1-(3,4,5-trimethoxyphenyl)-1H-imidazol-4-yl)amino)-1H-pyrazolo[3,4-d]pyrimidin-6-yl)pyrrolidine-2-carboxamide]: the IC50 was above 1000 nM.

In the case of `COc1cc(-n2cnc(Nc3nc(N4CCC[C@@H]4CO)c4occc4n3)c2)cc(OC)c1OC` [Compound 301b, (R)-(1-(2-((1-(3,4,5-trimethoxyphenyl)-1H-imidazol-4-yl)amino)furo[3,2-d]pyrimidin-4-yl)pyrrolidin-2-yl)methanol], the IC50 was below 100 nM.

Turning to `COc1cc(-n2cnc(Nc3nc4c(c(N5CCC[C@H]5CO)n3)CN(C(=O)c3ccc(C#N)cc3)CC4)c2)cc(OC)c1OC` [Compound 241a, (S)-4-(4-(2-(hydroxymethyl)pyrrolidin-1-yl)-2-((1-(3,4,5-trimethoxyphenyl)-1H-imidazol-4-yl)amino)-5,6,7,8-tetrahydropyrido[4,3-d]pyrimidine-6-carbonyl)benzonitrile], the IC50 is below 100 nM.

Turning to `COc1cc(-n2cnc(Nc3nc(N4CCC[C@H]4CO)nc4c3CCN(Cc3ccccc3)C4)c2)cc(OC)c1OC` [Compound 153c, (S)-(1-(7-benzyl-4-((1-(3,4,5-trimethoxyphenyl)-1H-imidazol-4-yl)amino)-5,6,7,8-tetrahydropyrido[3,4-d]pyrimidin-2-yl)pyrrolidin-2-yl)methanol], the IC50 was below 100 nM.

`COc1cc(-n2cnc(Nc3nc4c(c(N5CCC[C@H]5CO)n3)CCN(Cc3cccnc3)C4)c2)cc(OC)c1OC` [Compound 216a, (S)-(1-(7-(pyridin-3-ylmethyl)-2-((1-(3,4,5-trimethoxyphenyl)-1H-imidazol-4-yl)amino)-5,6,7,8-tetrahydropyrido[3,4-d]pyrimidin-4-yl)pyrrolidin-2-yl)methanol]: the IC50 was below 100 nM.

With `COc1cc(-n2cnc(Nc3nc(-c4cccc(CO)c4)nn4cccc34)c2)cc(OC)c1OC` [Compound 134a, (3-(4-((1-(3,4,5-trimethoxyphenyl)-1H-imidazol-4-yl)amino)pyrrolo[2,1-f][1,2,4]triazin-2-yl)phenyl)methanol], the IC50 is below 100 nM.

On to `OC[C@@H]1CCCN1c1nc(Nc2cn(-c3ccnc4ccccc34)cn2)c2cccn2n1` [Compound 448e, (S)-(1-(4-((1-(quinolin-4-yl)-1H-imidazol-4-yl)amino)pyrrolo[2,1-f][1,2,4]triazin-2-yl)pyrrolidin-2-yl)methanol], for which the IC50 is below 100 nM.

Turning to `COc1cc(-n2cnc(Nc3nc(N4CCC[C@H]4C(N)=O)nc4cc(C#N)ccc34)c2)cc(OC)c1OC` [Compound 345c, (S)-1-(7-cyano-4-((1-(3,4,5-trimethoxyphenyl)-1H-imidazol-4-yl)amino)quinazolin-2-yl)pyrrolidine-2-carboxamide], the IC50 was below 100 nM.

On to `COc1cc(-n2cnc(Nc3nc4c(c(N5CCC[C@H]5CO)n3)CCN(C(=O)OC(C)(C)C)C4)c2)cc(OC)c1OC` [Compound 182c, (S)-tert-butyl 4-(2-(hydroxymethyl)pyrrolidin-1-yl)-2-((1-(3,4,5-trimethoxyphenyl)-1H-imidazol-4-yl)amino)-5,6-dihydropyrido[3,4-d]pyrimidine-7(8H)-carboxylate], for which the IC50 was below 100 nM.

Take `COc1cc(-n2cnc(Nc3nc(N4CCC[C@@H]4C(N)=O)nc4c3COC4)c2)cc(OC)c1OC` [Compound 312a, (R)-1-(4-((1-(3,4,5-trimethoxyphenyl)-1H-imidazol-4-yl)amino)-5,7-dihydrofuro[3,4-d]pyrimidin-2-yl)pyrrolidine-2-carboxamide]: the IC50 was below 100 nM.

Consider `COc1cc(-n2cnc(Nc3nc(N4CCC[C@H]4CO)nc4sc(CN5CCCC5)cc34)c2)cc(OC)c1OC` [Compound 384b, (S)-(1-(6-(pyrrolidin-1-ylmethyl)-4-((1-(3,4,5-trimethoxyphenyl)-1H-imidazol-4-yl)amino)thieno[2,3-d]pyrimidin-2-yl)pyrrolidin-2-yl)methanol], for which the IC50 is below 100 nM.

In the case of `COc1cc(-n2cnc(Nc3nc(N4CCC[C@@H]4CO)nc4c3COC4)c2)cc(OC)c1OC` [Compound 282a, (R)-(1-(4-((1-(3,4,5-trimethoxyphenyl)-1H-imidazol-4-yl)amino)-5,7-dihydrofuro[3,4-d]pyrimidin-2-yl)pyrrolidin-2-yl)methanol], the IC50 was below 100 nM.

As to `COc1cc(-n2cnc(Nc3nc(N4CCC[C@H]4C(N)=O)nc4c3cnn4C)c2)cc(OC)c1OC` [Compound 337a, (S)-1-(1-methyl-4-((1-(3,4,5-trimethoxyphenyl)-1H-imidazol-4-yl)amino)-1H-pyrazolo[3,4-d]pyrimidin-6-yl)pyrrolidine-2-carboxamide], the IC50 was below 100 nM.

As for `COc1cc(-n2cnc(Nc3nc(N4CCC[C@H]4C(N)=O)nc4cccnc34)c2)cc(OC)c1OC` [Compound 161a, (S)-1-(4-((1-(3,4,5-trimethoxyphenyl)-1H-imidazol-4-yl)amino)pyrido[3,2-d]pyrimidin-2-yl)pyrrolidine-2-carboxamide], the IC50 was 100 to 1000 nM.

With `COc1cc(-n2cnc(Nc3nc(N4CCC[C@H]4CO)nc4cc[nH]c34)c2)cc(OC)c1OC` [Compound 160d, (S)-(1-(4-((1-(3,4,5-trimethoxyphenyl)-1H-imidazol-4-yl)amino)-5H-pyrrolo[3,2-d]pyrimidin-2-yl)pyrrolidin-2-yl)methanol], the IC50 was below 100 nM.

Turning to `COc1cc(-n2cnc(Nc3nc(N4CCC[C@H]4CO)nc4cc(C(F)(F)F)ccc34)c2)cc(OC)c1OC` [Compound 284c, (S)-(1-(7-(trifluoromethyl)-4-((1-(3,4,5-trimethoxyphenyl)-1H-imidazol-4-yl)amino)quinazolin-2-yl)pyrrolidin-2-yl)methanol], the IC50 is below 100 nM.

For `COc1cc(-n2cnc(Nc3nc(N4CCC[C@@H]4CO)nn4c(CN5CCCCC5)ccc34)c2)cc(OC)c1OC` [Compound 348a, (R)-(1-(7-(piperidin-1-ylmethyl)-4-((1-(3,4,5-trimethoxyphenyl)-1H-imidazol-4-yl)amino)pyrrolo[2,1-f][1,2,4]triazin-2-yl)pyrrolidin-2-yl)methanol], the IC50 was below 100 nM.

As to `COc1cc(-n2cnc(Nc3nc(N4CCC[C@H]4C(N)=O)c4cccn4n3)c2)cc(C(N)=O)c1OC` [Compound 230f, (S)-1-(2-((1-(3-carbamoyl-4,5-dimethoxyphenyl)-1H-imidazol-4-yl)amino)pyrrolo[2,1-f][1,2,4]triazin-4-yl)pyrrolidine-2-carboxamide], the IC50 was above 1000 nM.

For the compound `OC[C@@H]1CCCN1c1nc(Nc2cn(-c3ccc4c(c3)OCO4)cn2)c2ccsc2n1` [Compound 428b, (S)-(1-(4-((1-(benzo[d][1,3]dioxol-5-yl)-1H-imidazol-4-yl)amino)thieno[2,3-d]pyrimidin-2-yl)pyrrolidin-2-yl)methanol], the IC50 is below 100 nM.

As for `COc1cc(-n2cnc(Nc3nc(N4CCC[C@@H]4CO)nc4sccc34)c2)cc(OC)c1OC` [Compound 297a, (R)-(1-(4-((1-(3,4,5-trimethoxyphenyl)-1H-imidazol-4-yl)amino)thieno[2,3-d]pyrimidin-2-yl)pyrrolidin-2-yl)methanol], the IC50 is below 100 nM.

`COc1cc(-n2cnc(Nc3nc(N4CCC[C@@H]4C(N)=O)nc4ccsc34)c2)cc(OC)c1OC` [Compound 299a, (R)-1-(4-((1-(3,4,5-trimethoxyphenyl)-1H-imidazol-4-yl)amino)thieno[3,2-d]pyrimidin-2-yl)pyrrolidine-2-carboxamide]: the IC50 was below 100 nM.

Take `COc1cc(-n2cnc(Nc3nc(N4CCC[C@H]4CO)c4c(C)nn([C@H]5CC[C@@H](O)CC5)c4n3)c2)cc(OC)c1OC` [Compound 447c, (cis)-4-(4-((S)-2-(hydroxymethyl)pyrrolidin-1-yl)-3-methyl-6-((1-(3,4,5-trimethoxyphenyl)-1H-imidazol-4-yl)amino)-1H-pyrazolo[3,4-d]pyrimidin-1-yl)cyclohexanol]: the IC50 is below 100 nM.

For the compound `CCCC=Cc1ccc2c(Nc3cn(-c4cc(OC)c(OC)c(OC)c4)cn3)nc(N3CCC[C@H]3CO)nn12` [Compound 79d, (S)-(1-(7-(pent-1-en-1-yl)-4-((1-(3,4,5-trimethoxyphenyl)-1H-imidazol-4-yl)amino)pyrrolo[2,1-f][1,2,4]triazin-2-yl)pyrrolidin-2-yl)methanol], the IC50 was below 100 nM.

Regarding `COc1cc(-n2cnc(Nc3nc(N4CC[C@H](CO)C4)c4cccn4n3)c2)cc(OC)c1OC` [Compound 333b, (S)-(1-(2-((1-(3,4,5-trimethoxyphenyl)-1H-imidazol-4-yl)amino)pyrrolo[2,1-f][1,2,4]triazin-4-yl)pyrrolidin-3-yl)methanol], the IC50 is below 100 nM.

Take `c1ccc(C2CCCN2c2nc(Nc3cn(C4CC4)cn3)c3cccn3n2)cc1` (stereo not shown) [Compound 30a, N-(1-cyclopropyl-1H-imidazol-4-yl)-2-(2-phenylpyrrolidin-1-yl)pyrrolo[2,1-f][1,2,4]triazin-4-amine]: the IC50 lay within 100 to 1000 nM.

Turning to `COc1cc(Cl)cc(-n2cnc(Nc3nc(N4CCC[C@H]4CO)c4cccn4n3)c2)c1` [Compound 249d, (S)-(1-(2-((1-(3-chloro-5-methoxyphenyl)-1H-imidazol-4-yl)amino)pyrrolo[2,1-f][1,2,4]triazin-4-yl)pyrrolidin-2-yl)methanol], the IC50 lay in the range of 100 to 1000 nM.

With `COc1cc(-n2cnc(Nc3nc(N4CCC[C@H]4C(N)=O)nc4cc(CN5CCCCC5)oc34)c2)cc(OC)c1OC` [Compound 315f, (S)-1-(6-(piperidin-1-ylmethyl)-4-((1-(3,4,5-trimethoxyphenyl)-1H-imidazol-4-yl)amino)furo[3,2-d]pyrimidin-2-yl)pyrrolidine-2-carboxamide], the IC50 was below 100 nM.

On to `COc1cc(-n2cnc(Nc3nc(N4CCC[C@H]4CO)c4cnn(C5CCCCO5)c4n3)c2)cc(OC)c1OC` (stereo partly drawn) [Compound 430b, ((2S)-1-(1-(tetrahydro-2H-pyran-2-yl)-6-((1-(3,4,5-trimethoxyphenyl)-1H-imidazol-4-yl)amino)-1H-pyrazolo[3,4-d]pyrimidin-4-yl)pyrrolidin-2-yl)methanol], for which the IC50 is below 100 nM.
